According to the supplement of paper PMC10307832:

Columns and labels:
Assay in all cases: relative viability (nuclei count vs DMSO), 5 days (fraction); higher = more cells survive
Quizartinib = compound: CC(C)(C)c1cc(NC(=O)Nc2ccc(-c3cn4c(n3)sc3cc(OCCN5CCOCC5)ccc34)cc2)no1 [Quizartinib]
Procedure, shortened: (§1)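 After an overnight hold at 37 °C, lung cancer cell lines in 1536-well plates were pinned with five library-drug doses (not always all listed), each √10 from the next, on vehicle-anchored plates. The cells stayed 5 days without fresh medium, then a one-step fix, permeabilisation and Hoechst stain preceded 4× imaging and MetaXpress nuclear counts. A plate passed only with control CV under 25% and at least one doubling. Viability is the median, over plates, of treated-well nuclei relative to vehicle-well nuclei.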

YM155 = compound: COCC[n+]1c2c(n(Cc3cnccn3)c1C)C(=O)c1ccccc1C2=O [YM155]
Procedure, shortened: as §1

Quizartinib + Navitoclax = compound: CC(C)(C)c1cc(NC(=O)Nc2ccc(-c3cn4c(n3)sc3cc(OCCN5CCOCC5)ccc34)cc2)no1 [Quizartinib] + CC1(C)CCC(c2ccc(Cl)cc2)=C(CN2CCN(c3ccc(C(=O)NS(=O)(=O)c4ccc(N[C@H](CCN5CCOCC5)CSc5ccccc5)c(S(=O)(=O)C(F)(F)F)c4)cc3)CC2)C1 [Navitoclax] (partner 0.5 µM)
Procedure, shortened: (§2)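 Lung cancer cell lines were seeded in 1536-well plates and dosed by pin tool the next day, with either a single drug or a fixed anchor-drug dose combined with five library-drug doses (not always all listed) spaced in √10 steps. Five days later, one step fixed the cells and stained their nuclei (final 0.05% Triton X-100, 1% formaldehyde, 1 ug/ml Hoechst), and nuclei were counted on 4× images. Relative viability is the nuclei count in treated wells divided by the count in vehicle wells, and each value is the median of duplicate plates.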

Quizartinib + Foretinib = compound: CC(C)(C)c1cc(NC(=O)Nc2ccc(-c3cn4c(n3)sc3cc(OCCN5CCOCC5)ccc34)cc2)no1 [Quizartinib] + COc1cc2c(Oc3ccc(NC(=O)C4(C(=O)Nc5ccc(F)cc5)CC4)cc3F)ccnc2cc1OCCCN1CCOCC1 [Foretinib] (partner 0.25 µM)
Procedure, shortened: as §2

Cell Line | relative viability (Quizartinib; 0.001 µM) | relative viability (Quizartinib; 0.003162 µM) | relative viability (Quizartinib; 0.01 µM) | relative viability (Quizartinib; 0.03162 µM) | relative viability (Quizartinib; 0.1 µM) | relative viability (YM155; 0.002 µM) | relative viability (YM155; 0.006325 µM) | relative viability (YM155; 0.02 µM) | relative viability (YM155; 0.06325 µM) | relative viability (Quizartinib + Navitoclax; first compound 0.001 µM) | relative viability (Quizartinib + Navitoclax; first compound 0.003162 µM) | relative viability (Quizartinib + Navitoclax; first compound 0.01 µM) | relative viability (Quizartinib + Navitoclax; first compound 0.03162 µM) | relative viability (Quizartinib + Navitoclax; first compound 0.1 µM) | relative viability (Quizartinib + Foretinib; first compound 0.001 µM) | relative viability (Quizartinib + Foretinib; first compound 0.003162 µM) | relative viability (Quizartinib + Foretinib; first compound 0.01 µM) | relative viability (Quizartinib + Foretinib; first compound 0.03162 µM) | relative viability (Quizartinib + Foretinib; first compound 0.1 µM)
NCI-H2170 | 0.97 | 0.944 | 1.04 | 1.04 | 0.995 | 0.922 | 1.05 | 0.936 | 1.05 | 0.765 | 0.627 | 0.715 | 0.573 | 0.665 | 0.932 | 0.956 | 1.08 | 0.981 | 1.12
NCI-H2228 | 0.856 | 0.854 | 1.15 | 1.13 | 0.927 | 0.834 | 0.887 | 1.02 | 1.11 | 0.859 | 0.702 | 0.75 | 1.08 | 0.98 | 0.927 | 0.954 | 1.01 | 0.715 | 1.02
NCI-H2347 | 0.961 | 1.06 | 1.07 | 0.965 | 1.12 | 0.928 | 0.994 | 1.07 | 0.868 | 0.675 | 0.886 | 0.91 | 0.845 | 0.994 | 0.655 | 0.963 | 0.638 | 0.892 | 0.938
NCI-H2405 | 0.986 | 1.03 | 0.955 | 0.958 | 1.06 | 0.952 | 0.903 | 0.956 | 0.595 | 0.912 | 0.858 | 0.942 | 0.784 | 1.15 | 0.96 | 1.04 | 1.03 | 1.05 | 1.07
NCI-H3122 | 0.885 | 0.977 | 1.07 | 1.01 | 0.982 | 0.984 | 0.992 | 1.01 | 0.976 | 0.93 | 0.981 | 1.02 | 1.03 | 1.02 | 0.919 | 0.918 | 0.988 | 0.953 | 0.965
PC-3 [JPC-3] | 0.978 | 1.02 | 1.04 | 0.852 | 1.08 | 1.01 | 1.07 | 1.1 | 1 | 0.703 | 0.859 | 0.768 | 0.835 | 0.821 | 0.947 | 1.03 | 1.11 | 1.04 | 1.07
PC-14 | 0.884 | 0.985 | 1.09 | 0.833 | 1.18 | 0.939 | 1.02 | 1.03 | 0.931 | 1 | 0.892 | 1.09 | 0.966 | 0.977 | 0.844 | 0.893 | 0.973 | 0.953 | 0.971
RERF-LC-KJ | 0.954 | 0.926 | 1.03 | 0.99 | 0.915 | 1 | 0.973 | 1.01 | 1.01 | 0.854 | 0.699 | 1.08 | 0.918 | 0.688 | 0.844 | 0.828 | 0.888 | 0.926 | 0.804
SK-LU-1 | 0.88 | 0.861 | 1.11 | 0.999 | 1.06 | 0.86 | 1.06 | 1.07 | 0.91 | 0.852 | 0.771 | 0.979 | 0.72 | 1.07 | 0.779 | 0.76 | 0.943 | 0.83 | 0.985
SK-MES-1 | 0.944 | 0.96 | 1.09 | 0.732 | 0.924 | 0.956 | 1.02 | 0.942 | 0.692 | 1.05 | 1.1 | 1.35 | 1.13 | 1.26 | 0.789 | 0.901 | 0.972 | 0.925 | 0.939
SW 1573 | 0.87 | 0.971 | 1.09 | 0.481 | 1.08 | 1.02 | 0.939 | 0.803 | 0.394 | 1.1 | 0.864 | 0.954 | 0.981 | 0.968 | 0.946 | 0.886 | 0.896 | 1.02 | 1.04
UMC-11 | 0.723 | 0.945 | 0.983 | 0.966 | 0.988 | 0.889 | 0.998 | 1.04 | 0.959 | 0.271 | 0.278 | 0.364 | 0.346 | 0.307 |  | 0.972 | 1.17 | 0.957 | 1.1
